Assay results published in ChEMBL document CHEMBL1153095, “Design, synthesis and evaluation of 4,7-diamino-1,10-phenanthroline G-quadruplex ligands” (Bioorg Med Chem, 2009).
pKd: −log10 of the molar value.

How the values were obtained:
Type in all cases: nucleic-acid assay
[1] = test system: Nucleic Acid; test: Stabilization of 5'-d[(G3T2A)3G3]-3' quadruplex DNA assessed as change in melting temperature at 20 uM by CD-spectrophotometry
[2] = test system: Nucleic Acid; test: Stabilization of 5'-d[(G3T2A)3G3]-3' quadruplex DNA assessed as change in melting temperature at 10 uM by CD-spectrophotometry
[3] = test system: Nucleic Acid; test: Stabilization of 5'-d[(G3T2A)3G3]-3' quadruplex DNA assessed as change in melting temperature at 5 uM by CD-spectrophotometry
[4] = target: Nucleic Acid; test: Binding affinity to 5'-d[(G3T2A)3G3]-3' quadruplex DNA by surface plasmon resonance
[5] = test system: Nucleic Acid; test: Stabilization of 5'-d[(AT)10]-3' duplex DNA assessed as melting temperature at 20 uM by CD-spectrophotometry

Row | ΔTm [1] [°C] | ΔTm [2] [°C] | ΔTm [3] [°C] | pKd [4] | Tm [5] [°C] | Structure (SMILES)
1 | 1.3 | – | – | – | – | Nc1ccnc2c1ccc1c(N)ccnc12
2 | 9.9 | 7.6 | 2 | 6.14 | – | NCCNc1ccnc2c1ccc1c(NCCN)ccnc12
3 | 10.5 | 8.8 | 1.8 | 6.09 | – | CN(C)CCNc1ccnc2c1ccc1c(NCCN(C)C)ccnc12
4 | 16.6 | 14.2 | 6 | 6.39 | – | N=C(N)NCCCNc1ccnc2c1ccc1c(NCCCNC(=N)N)ccnc12
5 | 0 | – | – | – | – | c1cnc2c(c1)ccc1cccnc12
6 | 15.3 | 14.6 | 2.5 | 6.64 | 57 | NCCCCNc1ccnc2c1ccc1c(NCCCCN)ccnc12
7 | 14.4 | 13 | 2.3 | 6.48 | – | CN(C)CCCCNc1ccnc2c1ccc1c(NCCCCN(C)C)ccnc12
8 | 17.3 | 14.7 | 6.1 | 6.48 | 63 | N=C(N)NCCCCNc1ccnc2c1ccc1c(NCCCCNC(=N)N)ccnc12
9 | 0.1 | – | – | – | – | Cc1ccnc2c1ccc1c(C)ccnc12
10 | 13.7 | 9.9 | 3 | 6.40 | – | N=C(N)NCCNc1ccnc2c1ccc1c(NCCNC(=N)N)ccnc12
11 | 13.3 | 10.6 | 1.9 | 6.52 | – | CN(C)CCCNc1ccnc2c1ccc1c(NCCCN(C)C)ccnc12
12 | 13.1 | 10.6 | 2.4 | 6.35 | – | NCCCNc1ccnc2c1ccc1c(NCCCN)ccnc12
